Results reported in patent US20220242861A1, “IMIDAZOPYRIDINYL COMPOUNDS AND USE THEREOF FOR TREATMENT OF PROLIFERATIVE DISORDERS” (1ST Biotherapeutics, Inc., priority 2019, published 2022).
Blank lines part the entries; values can stand above or below the molecule they belong to.

Experiments:
[1] = test system: K562 human leukemia cell line; assay: K562 Cell Proliferation Assay (MTS); assay type: cell-based; details: K562 cells, 48 hr incubation, MTS cell viability
Experimental: K562 human leukemia cell line purchased from Korean cell line bank (KCLB) and were cultured in Roswell Park Memorial Institute (RPMI) 1640 Medium supplemented with 10% fetal bovine serum (FBS) and 1% penicillin-streptomycin in a humidified incubator in an atmosphere of 5% CO2 at 37° C. Cells were seeded in 96-well plates at a density of 2×10^3 cells/well in 100 […] media. Compounds were diluted as two times concentration in 100 μl of media and added to each well. Compounds were 5-fold serially diluted for 6 points and treated from 5 μM to 1.6 nM in K562 cells. After 48 hr incubation, Compound treated cells were analyzed for anti-proliferation assay. Cell viability was investigated using the Cell Titer 96 Aqueous One Solution Reagent. Briefly, 200 μl of media were supplemented with 40 μl of MTS solution, incubated for 4hr, and then the absorbance was recorded at 490 nm with a 96-well plate reader. G150 values were calculated from a series of percent of cell viability at a range of compound concentration. GraphPad Prism 8 software or SigmaPlot 13.0 was used to generate G150 values.

[2] = biological target: T1, recombinant human c-Kit (D816V) (Homo sapiens, UniProt P10721, D816V); assay: c-Kit (D816V) Kinase Assay (ADP-Glo); assay type: biochemical; details: In vitro kinase activity
T1 construct: purchased Signalchem
Experimental: (§1) ADP-Glo assay kit was purchased from Promega. Magnesium chloride (MgCl2), ethylene glycol-bis(β-aminoethyl ether)-N,N,N′,N′-tetraacetic acid (EGTA), bovine serum albumin (BSA), 1,4-dithiothreitol (DTT) and dimethyl sulfoxide (DMSO) were purchased from Sigma-Aldrich. HEPES buffer was purchased from Gibco. c-Kit (D816V) kinase and poly (4:1 Glu, Tyr) peptide were purchased from Signalchem.
(§2) c-Kit (D816V) kinase activity was measured by Promega's ADP-GIoTM Assay. In this assay, 2.5ng of recombinant human c-Kit (D816V) is incubated with 5 μL of compounds (0.5% DMSO), 5 μL of Poly (4:1 Glu, Tyr) peptide (50 ng/μl) and 5 μL of ATP (15 μM) in buffer (50 mM HEPES, pH7.5; 10 mM MgCl2; 1 mM EGTA; 0.05% BSA; 50 μM DTT). The assay was started by incubating the reaction mixture in a 96-well plate at 30° C. for 120-min. After the incubation, 25 μL ADP-Glo reagent was added and the reaction was incubated at room temperature for 40-min to stop the reaction and degrade residual ATP. The ADP product was then converted to ATP by adding 50 μL per well of detection reagent. Luminescence was detected after 30-min room temperature incubation with the Molecular device I3X plate reader. The IC50 values were calculated from a series of percent inhibition values determined at a range of inhibitor concentration using software routines as implemented in the GraphPad Prism 8 software and Sigma Plot 13.0.

[3] = biological target: T2, recombinant human PDGFRα (Homo sapiens, UniProt P16234); assay: PDGFRα Kinase Assay (ADP-Glo); assay type: biochemical; details: In vitro kinase activity, read-out: PDGFRa IC50
T2 construct: purchased Signalchem
Experimental: as §1, with “glycol-bis(p-aminoethyl” for “glycol-bis(β-aminoethyl”, “PDGFRα Kinase” for “c-Kit (D816V) kinase”
(§3) PDGFRα kinase activity was measured by Promega's ADP-Glo™ Assay. In this assay, 40ng of recombinant human PDGFRα is incubated with 5 μL of compounds (0.5% DMSO), 5 μL of Poly (4:1 Glu, Tyr) peptide (100 ng/μl) and 5 μL of ATP (25 pM) in buffer (50 mM HEPES, pH7.5; 10 mM MgCl2; 1 mM EGTA; 0.05% BSA; 50 μM DTT). The assay was started by incubating the reaction mixture in a 96-well plate at 30° C. for 60-min. After the incubation, 25 μL ADP-Glo reagent was added and the reaction was incubated at room temperature for 40-min to stop the reaction and degrade residual ATP. The ADP product was then converted to ATP by adding 50 μL per well of detection reagent. Luminescence was detected after 30-min room temperature incubation with the Molecular device I3X plate reader. The IC50 values were calculated from a series of percent inhibition values determined at a range of inhibitor concentration using software routines as implemented in the GraphPad Prism 8 software and Sigma Plot 13.0.

[4] = biological target: T3, recombinant human PDGFRα (D842V) (Homo sapiens, UniProt P16234, D842V); assay: PDGFRα (D842V) Kinase Assay (ADP-Glo); assay type: biochemical; details: In vitro kinase activity
T3 construct: purchased Signalchem
Experimental: as §1, with “glycol-bis(p-aminoethyl ether)-N, N, N′, N′-tetraacetic” for “glycol-bis(β-aminoethyl ether)-N,N,N′,N′-tetraacetic”, “PDGFRα (D842V) Kinase” for “c-Kit (D816V) kinase”
as §3, with “PDGFRα (D842V)” for “PDGFRα”, “10 ng” for “40ng”, “([…]” for “(25”, “[…]” for “50 μM”, “120-min.” for “60-min.”

[5] = biological target: T4, recombinant human c-Kit (Homo sapiens, UniProt P10721); assay: c-Kit Kinase Assay (ADP-Glo); assay type: biochemical; details: In vitro kinase activity
T4 construct: purchased Signalchem
Experimental: as §1, with “glycol-bis([…]” for “glycol-bis(β-aminoethyl”, “(EGTA), manganese (II) chloride (MnCl2),” for “(EGTA),”, “c-Kit” for “c-Kit (D816V)”
as §2, with “c-Kit” for “c-Kit (D816V)”, “ADP-Glo™” for “ADP-GIoTM”, “100ng” for “2.5ng”, “(50” for “(15”, “50μM DTT; 2mM MnCl2).” for “50 μM DTT).”

T1 sequence (P10721 26-976 D816V): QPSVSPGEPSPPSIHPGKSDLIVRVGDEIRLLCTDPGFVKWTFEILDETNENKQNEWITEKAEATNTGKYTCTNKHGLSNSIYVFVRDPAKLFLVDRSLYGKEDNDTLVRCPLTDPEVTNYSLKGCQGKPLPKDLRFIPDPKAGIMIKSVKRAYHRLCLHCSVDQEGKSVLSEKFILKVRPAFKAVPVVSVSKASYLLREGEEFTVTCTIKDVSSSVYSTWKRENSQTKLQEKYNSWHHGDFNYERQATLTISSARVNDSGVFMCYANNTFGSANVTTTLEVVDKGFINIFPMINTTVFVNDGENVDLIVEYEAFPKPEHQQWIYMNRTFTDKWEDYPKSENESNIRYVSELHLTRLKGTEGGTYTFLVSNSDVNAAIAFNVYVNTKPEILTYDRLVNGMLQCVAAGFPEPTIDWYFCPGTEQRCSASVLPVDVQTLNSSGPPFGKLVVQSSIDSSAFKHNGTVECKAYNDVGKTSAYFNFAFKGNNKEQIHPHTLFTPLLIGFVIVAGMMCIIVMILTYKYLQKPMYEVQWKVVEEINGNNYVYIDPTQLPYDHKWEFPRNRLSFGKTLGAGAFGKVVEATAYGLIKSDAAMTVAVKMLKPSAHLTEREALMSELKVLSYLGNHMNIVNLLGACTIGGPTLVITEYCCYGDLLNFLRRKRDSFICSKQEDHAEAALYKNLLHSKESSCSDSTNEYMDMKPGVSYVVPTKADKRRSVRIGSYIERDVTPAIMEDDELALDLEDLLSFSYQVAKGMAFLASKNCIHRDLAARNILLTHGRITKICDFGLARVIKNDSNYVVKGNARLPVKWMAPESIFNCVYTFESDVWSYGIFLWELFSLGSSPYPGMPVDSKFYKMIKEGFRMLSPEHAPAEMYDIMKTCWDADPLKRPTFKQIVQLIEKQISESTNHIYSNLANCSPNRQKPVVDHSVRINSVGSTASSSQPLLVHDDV
T2 sequence (P16234 24-1089): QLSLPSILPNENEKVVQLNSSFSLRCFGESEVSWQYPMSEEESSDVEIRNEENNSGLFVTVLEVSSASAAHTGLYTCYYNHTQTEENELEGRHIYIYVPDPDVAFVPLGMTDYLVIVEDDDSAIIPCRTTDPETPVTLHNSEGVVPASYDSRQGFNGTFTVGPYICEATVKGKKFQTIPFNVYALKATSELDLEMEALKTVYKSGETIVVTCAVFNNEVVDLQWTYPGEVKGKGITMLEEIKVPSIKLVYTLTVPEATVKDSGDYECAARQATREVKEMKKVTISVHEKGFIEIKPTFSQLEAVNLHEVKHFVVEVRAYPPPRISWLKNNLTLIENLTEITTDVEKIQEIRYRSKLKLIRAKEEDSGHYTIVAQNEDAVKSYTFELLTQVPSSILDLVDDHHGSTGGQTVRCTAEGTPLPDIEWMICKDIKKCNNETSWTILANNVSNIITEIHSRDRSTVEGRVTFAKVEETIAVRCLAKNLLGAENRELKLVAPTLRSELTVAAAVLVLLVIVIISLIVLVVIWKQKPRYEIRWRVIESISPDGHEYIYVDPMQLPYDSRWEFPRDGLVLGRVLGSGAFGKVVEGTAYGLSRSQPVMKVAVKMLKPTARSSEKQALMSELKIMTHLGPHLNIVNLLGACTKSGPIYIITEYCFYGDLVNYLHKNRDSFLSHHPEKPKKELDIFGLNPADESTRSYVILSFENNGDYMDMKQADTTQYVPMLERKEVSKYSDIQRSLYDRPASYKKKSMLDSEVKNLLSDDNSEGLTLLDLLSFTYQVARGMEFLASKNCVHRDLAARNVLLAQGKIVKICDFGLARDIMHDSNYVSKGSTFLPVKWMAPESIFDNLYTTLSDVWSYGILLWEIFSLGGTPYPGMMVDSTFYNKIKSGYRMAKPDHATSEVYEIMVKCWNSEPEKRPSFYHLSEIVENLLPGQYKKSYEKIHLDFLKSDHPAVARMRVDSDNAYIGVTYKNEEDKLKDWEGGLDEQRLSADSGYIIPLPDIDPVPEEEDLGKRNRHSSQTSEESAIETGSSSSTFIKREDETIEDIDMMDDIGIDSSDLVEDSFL
T3 sequence (P16234 24-1089 D842V): as the sequence (P16234 24-1089) above, with D819V counted along it
T4 sequence (P10721 26-976): as the sequence (P10721 26-976 D816V) above, with V791D counted along it

IC50 [1]: 10 to 100 nM
SMILES: CNc1ccc(C)c(-c2ccc3nc(NC(=O)[C@@H]4C[C@@H]4F)cn3c2)c1 [Example 24, (1 S,2 S)-2-fluoro-N-(6-(2-methyl-5-(methylamino)phenyl)imidazo[1,2-a]pyridin-2-yl)cyclopropane-1-carboxamide]

IC50 [1]: 10 to 100 nM
SMILES: Cc1ccc(-c2cc[nH]c2)cc1-c1ccc2nc(NC(=O)[C@@H]3C[C@@H]3F)cn2c1 [Example 40, (1 S,2 S)-2-fluoro-N-(6-(2-methyl-5-(1H-pyrrol-3-yl)phenyl)imidazo[1,2-a]pyridin-2-yl)cyclopropane-1-carboxamide]

IC50 [2]: > 1000 nM
IC50 [3]: > 1000 nM
IC50 [4]: > 1000 nM
IC50 [5]: > 1000 nM
SMILES: O=C(Nc1cn2cc(-c3cccc(F)c3-c3ccco3)ccc2n1)[C@@H]1C[C@@H]1F [Example 65, (1 S,2 S)-2-fluoro-N-(6-(3-fluoro-2-(furan-2-yl)phenyl)imidazo[1,2-a]pyridin-2-yl)cyclopropanecarboxamide]

IC50 [2]: > 1000 nM
IC50 [3]: > 1000 nM
IC50 [4]: > 1000 nM
IC50 [5]: > 1000 nM
SMILES: CC(=O)c1c(F)cccc1-c1ccc2nc(NC(=O)[C@@H]3C[C@@H]3F)cn2c1 [Example 68, (1 S,2 S)-N-(6-(2-acetyl-3-fluorophenyl)imidazo[1,2-a]pyridin-2-yl)-2-fluorocyclopropanecarboxamide]

IC50 [1]: 101 to 1000 nM
SMILES: O=C(Nc1cn2cc(-c3cnc4[nH]ccc4c3)ccc2n1)[C@@H]1C[C@@H]1F [Example 85, (1 S,2 S)-N-(6-(1H-pyrrolo[2,3-b]pyridin-5-yl)imidazo[1,2-a]pyridin-2-yl)-2-fluorocyclopropanecarboxamide]

The next lines start with the molecule.

SMILES: Cc1c(F)cccc1-c1ccc2nc(NC(=O)[C@@H]3C[C@@H]3F)cn2c1 [Example 1, (1 S,2 S)-2-fluoro-N-(6-(3-fluoro-2-methylphenyl)imidazo[1,2-a]pyridin-2-yl)cyclopropane-1-carboxamide]
IC50 [1]: 101 to 1000 nM

SMILES: Cc1ccc(F)cc1-c1ccc2nc(NC(=O)[C@@H]3C[C@@H]3F)cn2c1 [Example 11, (1 S,2 S)-2-fluoro-N-(6-(5-fluoro-2-methylphenyl)imidazo[1,2-a]pyridin-2-yl)cyclopropane-1-carboxamide]
IC50 [1]: 101 to 1000 nM

SMILES: Cc1ccc(O)cc1-c1ccc2nc(NC(=O)[C@@H]3C[C@@H]3F)cn2c1 [Example 12, (1 S,2 S)-2-fluoro-N-(6-(5-hydroxy-2-methylphenyl)imidazo[1,2-a]pyridin-2-yl)cyclopropane-1-carboxamide]
IC50 [1]: 10 to 100 nM

SMILES: Cc1ccc2[nH]ccc2c1-c1ccc2nc(NC(=O)[C@@H]3C[C@@H]3F)cn2c1 [Example 15, (1 S,2 S)-2-fluoro-N-(6-(5-methyl-1H-indol-4-yl)imidazo[1,2-a]pyridin-2-yl)cyclopropane-1-carboxamide]
IC50 [1]: 10 to 100 nM

SMILES: COCc1c(F)cccc1-c1ccc2nc(NC(=O)[C@@H]3C[C@@H]3F)cn2c1 [Example 64, (1 S,2 S)-2-fluoro-N-(6-(3-fluoro-2-(methoxymethyl)phenyl)imidazo[1,2-a]pyridin-2-yl)cyclopropanecarboxamide]
IC50 [2]: > 1000 nM
IC50 [3]: > 1000 nM
IC50 [4]: 101 to 1000 nM
IC50 [5]: > 1000 nM

SMILES: Cc1c(F)cccc1-c1ccc2nc(NC(=O)C3CC3)cn2c1 [Example 70, N-(6-(3-fluoro-2-methylphenyl)imidazo[1,2-a]pyridin-2-yl)cyclopropanecarboxamide]
IC50 [1]: 101 to 1000 nM

SMILES: Cc1c(F)cccc1-c1ccc2nc(NC(=O)C3CC3(F)F)cn2c1 (centres unmarked) [Example 77, 2,2-difluoro-N-(6-(3-fluoro-2-methylphenyl)imidazo[1,2-a]pyridin-2-yl)cyclopropanecarboxamide]
IC50 [1]: 101 to 1000 nM

SMILES: CN(C)Cc1c(F)cccc1-c1ccc2nc(NC(=O)[C@@H]3C[C@@H]3F)cn2c1 [Example 84, (1 S,2 S)-N-(6-(2-((dimethylamino)methyl)-3-fluorophenyl)imidazo[1,2-a]pyridin-2-yl)-2-fluorocyclopropanecarboxamide]
IC50 [2]: > 1000 nM
IC50 [5]: > 1000 nM

SMILES: Cc1cc2[nH]ccc2cc1-c1ccc2nc(NC(=O)[C@@H]3C[C@@H]3F)cn2c1 [Example 92, (1 S,2 S)-2-fluoro-N-(6-(6-methyl-1H-indol-5-yl)imidazo[1,2-a]pyridin-2-yl)cyclopropanecarboxamide]
IC50 [1]: 10 to 100 nM

SMILES: Cc1cc2nc[nH]c2cc1-c1ccc2nc(NC(=O)[C@@H]3C[C@@H]3F)cn2c1 [Example 94, (1 S,2 S)-2-fluoro-N-(6-(5-methyl-1H-benzo[d]imidazol-6-yl)imidazo[1,2-a]pyridin-2-yl)cyclopropanecarboxamide]
IC50 [1]: 101 to 1000 nM

SMILES: Cc1cc2ncsc2cc1-c1ccc2nc(NC(=O)[C@@H]3C[C@@H]3F)cn2c1 [Example 103, (1 S,2 S)-2-fluoro-N-(6-(5-methylbenzo[d]thiazol-6-yl)imidazo[1,2-a]pyridin-2-yl)cyclopropanecarboxamide]
IC50 [1]: 10 to 100 nM
